Results as given in US10364238B2, “N-((het) arylmethyl)-heteroaryl-carboxamides compounds as plasma kallikrein inhibitors” (KALVISTA PHARMACEUTICALS LIMITED, priority 2014, dated 2019).

Key:
Human plasma kallikrein = Human plasma kallikrein (Homo sapiens (Human), UniProt P03952); assay: Determination of the IC50 for plasma kallikrein; type: biochemical; conditions: 25° C., fluorogenic substrate H-DPro-Phe-Arg-AFC; read-out: IC50 (human PKaI)
Method: Determination of the IC50 for Plasma Kallikrein
(§1) Human plasma kallikrein (Protogen) was incubated at 25° C. with the fluorogenic substrate H-DPro-Phe-Arg-AFC and various concentrations of the test compound. Residual enzyme activity (initial rate of reaction) was determined by measuring the change in […] at 410 nm and the IC50 value for the test compound was determined.

Human KLK1 = Human KLK1 (Homo sapiens (Human), UniProt P06870); assay: Determination of the IC50 for KLK1; type: biochemical; conditions: 25° C., fluorogenic substrate H-DVal-Leu-Arg-AFC
Chain of Human KLK1 (P06870 25-262): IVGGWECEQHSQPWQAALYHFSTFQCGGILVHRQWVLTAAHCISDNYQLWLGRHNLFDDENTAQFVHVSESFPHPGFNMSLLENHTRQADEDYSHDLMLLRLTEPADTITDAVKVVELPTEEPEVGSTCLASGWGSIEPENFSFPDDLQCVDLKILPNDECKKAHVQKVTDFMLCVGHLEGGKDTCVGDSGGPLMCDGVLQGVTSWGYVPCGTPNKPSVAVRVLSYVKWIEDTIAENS
Method: Determination of the IC50 for KLK1
as §1, with “KLK1 (Callbiochem)” for “plasma kallikrein (Protogen)”, “H-DVal-Leu-Arg-AFC” for “H-DPro-Phe-Arg-AFC”

Chain of Human plasma kallikrein (P03952 391-638): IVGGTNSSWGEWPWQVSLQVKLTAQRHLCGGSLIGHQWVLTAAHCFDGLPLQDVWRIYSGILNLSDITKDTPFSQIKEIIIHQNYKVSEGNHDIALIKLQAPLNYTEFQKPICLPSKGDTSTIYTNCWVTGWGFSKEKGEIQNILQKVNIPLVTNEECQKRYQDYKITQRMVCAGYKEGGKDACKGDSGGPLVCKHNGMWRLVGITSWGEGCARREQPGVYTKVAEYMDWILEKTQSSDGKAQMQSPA
Chain of Human plasma kallikrein (P03952 20-390 partner): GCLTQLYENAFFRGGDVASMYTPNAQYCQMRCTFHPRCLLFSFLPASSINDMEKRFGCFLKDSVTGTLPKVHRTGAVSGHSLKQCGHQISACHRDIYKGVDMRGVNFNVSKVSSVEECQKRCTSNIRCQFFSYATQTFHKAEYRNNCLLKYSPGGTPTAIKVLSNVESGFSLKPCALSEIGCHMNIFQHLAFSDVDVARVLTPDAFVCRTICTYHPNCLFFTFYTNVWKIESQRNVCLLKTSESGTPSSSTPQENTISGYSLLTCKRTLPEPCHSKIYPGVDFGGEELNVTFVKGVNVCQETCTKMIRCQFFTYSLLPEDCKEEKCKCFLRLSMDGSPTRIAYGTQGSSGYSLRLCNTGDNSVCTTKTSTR

Structure (SMILES) | IC50 (Human plasma kallikrein) [µM] | IC50 (Human KLK1) [µM]
Cc1cnn(Cc2ccc(Cn3cc(C(=O)NCc4cccc(OC(F)(F)F)c4)c(C(F)(F)F)n3)cc2)c1 [Example 7, 1-({4-[(4-methylpyrazol-1-yl)methyl]phenyl}methyl)-N-{[3-(trifluoromethoxy)phenyl]methyl}-3-(trifluoromethyl)pyrazole-4-carboxamide] | > 10 | > 10
COc1ccc(CNC(=O)c2cn(Cc3ccc(Cn4cc(C)cn4)cc3)nc2C(F)(F)F)c(OC)c1 [Example 10, N-[(2,4-dimethoxyphenyl)methyl]-1-({4-[(4-methylpyrazol-1-yl)methyl]phenyl}methyl)-3-(trifluoromethyl)pyrazole-4-carboxamide] | 1.27 | > 10
Cc1cnn(Cc2ccc(Cn3cc(C(=O)NCc4ccc(Cl)cc4F)c(C(F)(F)F)n3)cc2)c1 [Example 17, N-[(4-chloro-2-fluorophenyl)methyl]-1-({4-[(4-methylpyrazol-1-yl)methyl]phenyl}methyl)-3-(trifluoromethyl)pyrazole-4-carboxamide] | 0.865 | > 10
Cc1cnn(Cc2ccc(Cn3cc(C(=O)NCc4cccc(Cl)c4F)c(C(F)(F)F)n3)cc2)c1 [Example 19, N-[(3-chloro-2-fluorophenyl)methyl]-1-({4-[(4-methylpyrazol-1-yl)methyl]phenyl}methyl)-3-(trifluoromethyl)pyrazole-4-carboxamide] | 1.13 | > 10
Cc1cnn(Cc2ccc(Cn3cc(C(=O)NCc4c(Cl)cccc4Cl)c(C(F)(F)F)n3)cc2)c1 [Example 22, N-[(2,6-dichlorophenyl)methyl]-1-({4-[(4-methylpyrazol-1-yl)methyl]phenyl}methyl)-3-(trifluoromethyl)pyrazole-4-carboxamide] | 1.35 | > 10
Cc1cnn(Cc2ccc(Cn3cc(C(=O)NCc4cc(Cl)ccc4C(F)(F)F)c(C(F)(F)F)n3)cc2)c1 [Example 23, N-{[5-chloro-2-(trifluoromethyl)phenyl]methyl}-1-({4-[(4-methylpyrazol-1-yl)methyl]phenyl}methyl)-3-(trifluoromethyl)pyrazole-4-carboxamide] | 1.06 | > 10
Cc1cnn(Cc2ccc(Cn3cc(C(=O)NCc4c(C)cccc4C)c(C(F)(F)F)n3)cc2)c1 [Example 25, N-[(2,6-dimethylphenyl)methyl]-1-({4-[(4-methylpyrazol-1-yl)methyl]phenyl}methyl)-3-(trifluoromethyl)pyrazole-4-carboxamide] | 1.84 | > 10
Cc1cc(C)c(CNC(=O)c2cn(Cc3ccc(Cn4cc(C)cn4)cc3)nc2C(F)(F)F)c(C)c1 [Example 26, 1-({4-[(4-methylpyrazol-1-yl)methyl]phenyl}methyl)-3-(trifluoromethyl)-N-[(2,4,6-trimethylphenyl)methyl]pyrazole-4-carboxamide] | 1.34 | > 10
Cc1cnn(Cc2ccc(Cn3cc(C(=O)NCc4cccc(F)c4C)c(C(F)(F)F)n3)cc2)c1 [Example 27, N-[(3-fluoro-2-methylphenyl)methyl]-1-({4-[(4-methylpyrazol-1-yl)methyl]phenyl}methyl)-3-(trifluoromethyl)pyrazole-4-carboxamide] | > 10 | > 10
Cc1cnn(Cc2ccc(Cn3cc(C(=O)NCc4ncccc4F)c(C(F)(F)F)n3)cc2)c1 [Example 29, N-[(3-fluoropyridin-2-yl)methyl]-1-({4-[(4-methylpyrazol-1-yl)methyl]phenyl}methyl)-3-(trifluoromethyl)pyrazole-4-carboxamide] | 2.19 | > 10
Cc1cnn(Cc2ccc(Cn3cc(C(=O)NCc4cc(Cl)ccn4)c(C(F)(F)F)n3)cc2)c1 [Example 30, N-[(4-chloropyridin-2-yl)methyl]-1-({4-[(4-methylpyrazol-1-yl)methyl]phenyl}methyl)-3-(trifluoromethyl)pyrazole-4-carboxamide] | 0.915 | > 10

Now those with a lower IC50 (Human plasma kallikrein), led by results:

IC50 (Human plasma kallikrein) [µM] | IC50 (Human KLK1) [µM] | Structure (SMILES)
0.746 | > 10 | COc1ccc(CNC(=O)c2cn(Cc3ccc(Cn4cc(C)cn4)cc3)nc2C(F)(F)F)c(C(F)(F)F)c1 [Example 12, N-{[4-methoxy-2-(trifluoromethyl)phenyl]methyl}-1-({4-[(4-methylpyrazol-1-yl)methyl]phenyl}methyl)-3-(trifluoromethyl)pyrazole-4-carboxamide]
0.74 | > 10 | Cc1cnn(Cc2ccc(Cn3cc(C(=O)NCc4cc(Cl)ccc4F)c(C(F)(F)F)n3)cc2)c1 [Example 20, N-[(5-chloro-2-fluorophenyl)methyl]-1-({4-[(4-methylpyrazol-1-yl)methyl]phenyl}methyl)-3-(trifluoromethyl)pyrazole-4-carboxamide]
0.717 | > 10 | Cc1ccc(CNC(=O)c2cn(Cc3ccc(Cn4cc(C)cn4)cc3)nc2C(F)(F)F)c(C)c1 [Example 24, N-[(2,4-dimethylphenyl)methyl]-1-({4-[(4-methylpyrazol-1-yl)methyl]phenyl}methyl)-3-(trifluoromethyl)pyrazole-4-carboxamide]
0.539 | > 10 | Cc1ccc(CNC(=O)c2cn(Cc3ccc(Cn4cc(C)cn4)cc3)nc2C(F)(F)F)cc1 [Example 8, N-[(4-methylphenyl)methyl]-1-({4-[(4-methylpyrazol-1-yl)methyl]phenyl}methyl)-3-(trifluoromethyl)pyrazole-4-carboxamide]
0.514 | > 10 | Cc1cnn(Cc2ccc(Cn3cc(C(=O)NCc4c(F)cccc4Cl)c(C(F)(F)F)n3)cc2)c1 [Example 14, N-[(2-chloro-6-fluorophenyl)methyl]-1-({4-[(4-methylpyrazol-1-yl)methyl]phenyl}methyl)-3-(trifluoromethyl)pyrazole-4-carboxamide]
0.456 | – | COc1cc(F)c(CNC(=O)c2cn(Cc3ccc(Cn4cc(C)cn4)cc3)nc2C(F)(F)F)c(F)c1 [Example 11, N-[(2,6-difluoro-4-methoxyphenyl)methyl]-1-({4-[(4-methylpyrazol-1-yl)methyl]pheny}methyl)-3-(trifluoromethyl)pyrazole-4-carboxamide]
0.439 | > 10 | Cc1cnn(Cc2ccc(Cn3cc(C(=O)NCc4c(F)cccc4F)c(C(F)(F)F)n3)cc2)c1 [Example 13, N-[(2,6-difluorophenyl)methyl]-1-({4-[(4-methylpyrazol-1-yl)methyl]phenyl}methyl)-3-(trifluoromethyl)pyrazole-4-carboxamide]
0.373 | > 10 | Cc1cnn(Cc2ccc(Cn3cc(C(=O)NCc4c(F)ccc(Cl)c4F)c(C(F)(F)F)n3)cc2)c1 [Example 18, N-[(3-chloro-2,6-difluorophenyl)methyl]-1-({4-[(4-methylpyrazol-1-yl)methyl]phenyl}methyl)-3-(trifluoromethyl)pyrazole-4-carboxamide]
0.364 | > 10 | COc1cccc(CNC(=O)c2cn(Cc3ccc(Cn4cc(C)cn4)cc3)nc2C(F)(F)F)c1 [Example 5, N-[(3-methoxyphenyl)methyl]-1-({4-[(4-methylpyrazol-1-yl)methyl]phenyl}methyl)-3-(trifluoromethyl)pyrazole-4-carboxamide]
0.28 | > 10 | Cc1ccc(CNC(=O)c2cn(Cc3ccc(Cn4cc(C)cn4)cc3)nc2C(F)(F)F)c(F)c1 [Example 28, N-[(2-fluoro-4-methylphenyl)methyl]-1-({4-[(4-methylpyrazol-1-yl)methyl]phenyl}methyl)-3-(trifluoromethyl)pyrazole-4-carboxamide]
0.263 | > 10 | Cc1cnn(Cc2ccc(Cn3cc(C(=O)NCc4c(F)cc(Cl)cc4F)c(C(F)(F)F)n3)cc2)c1 [Example 16, N-[(4-chloro-2,6-difluorophenyl)methyl]-1-({4-[(4-methylpyrazol-1-yl)methyl]phenyl}methyl)-3-(trifluoromethyl)pyrazole-4-carboxamide]
0.257 | > 10 | Cc1cnn(Cc2ccc(Cn3cc(C(=O)NCc4c(C(F)(F)F)ccc(Cl)c4F)c(C(F)(F)F)n3)cc2)c1 [Example 21, N-{[3-chloro-2-fluoro-6-(trifluoromethyl)phenyl]methyl}-1-({4-[(4-methylpyrazol-1-yl)methyl]phenyl}methyl)-3-(trifluoromethyl)pyrazole-4-carboxamide]
0.239 | > 10 | COc1ccc(F)c(CNC(=O)c2cn(Cc3ccc(Cn4cc(C)cn4)cc3)nc2C(F)(F)F)c1 [Example 9, N-[(2-fluoro-5-methoxyphenyl)methyl]-1-({4-[(4-methylpyrazol-1-yl)methyl]phenyl}methyl)-3-(trifluoromethyl)pyrazole-4-carboxamide]
0.219 | > 10 | Cc1cnn(Cc2ccc(Cn3cc(C(=O)NCc4c(F)cccc4C(F)(F)F)c(C(F)(F)F)n3)cc2)c1 [Example 15, N-{[2-fluoro-6-(trifluoromethyl)phenyl]methyl}-1-({4-[(4-methylpyrazol-1-yl)methyl]phenyl}methyl)-3-(trifluoromethyl)pyrazole-4-carboxamide]
0.136 | > 10 | COc1cccc(CNC(=O)c2cn(Cc3ccc(Cn4cc(C)cn4)cc3)nc2C(F)(F)F)c1F [Example 4, N-[(2-fluoro-3-methoxyphenyl)methyl]-1-({4-[(4-methylpyrazol-1-yl)methyl]phenyl}methyl)-3-(trifluoromethyl)pyrazole-4-carboxamide]
